Source: patent US20250084087A1, “BICYCLIC HETEROCYCLES AS MRGPRX2 ANTAGONISTS” (Incyte Corporation, priority 2023, published 2025)

What was measured:
Format in all cases: cell-based
MRGPRX2 [1] = target: T1, MRGPRX2 (Homo sapiens, UniProt Q96LB1); assay: MRGPRX2 FLIPR calcium mobilization assay; set-up: host or cells: CHO-K1; conditions: CHO-K1 cells stably expressing human MRGPRX2; Ca2+ release; agonist Cortistatin-14 at EC80
T1 sequence (Q96LB1 1-330): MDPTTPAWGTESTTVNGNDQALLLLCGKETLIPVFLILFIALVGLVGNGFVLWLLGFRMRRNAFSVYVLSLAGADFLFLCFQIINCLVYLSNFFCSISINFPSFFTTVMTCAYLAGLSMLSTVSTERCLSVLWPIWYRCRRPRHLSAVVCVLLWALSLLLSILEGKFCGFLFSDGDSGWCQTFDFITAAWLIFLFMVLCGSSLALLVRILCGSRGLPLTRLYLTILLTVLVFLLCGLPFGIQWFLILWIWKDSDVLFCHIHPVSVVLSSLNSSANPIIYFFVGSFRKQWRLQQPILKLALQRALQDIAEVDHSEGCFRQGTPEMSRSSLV
Description: Example A. MRGPRX2 FLIPR Calcium Mobilization Assay
Chinese hamster ovary (CHO-K1) cells stably expressing human MRGPRX2 were purchased from Genescript (Piscataway, NJ). The cells were maintained in culture medium (Ham's F-12K) containing 10% (v/v) FBS, 200 μg/mL Zeocin, 100 units/mL penicillin G and 100 μg/mL streptomycin (Life Technologies, Carlsbad, CA). For the assay, the cells were harvested and resuspended with culture medium without Zeocin before plating at 8000 cells per well in 20 μL in 384-well black clear bottom cell culture plates (VWR, Radnor, PA). After 24 hour culture at 37° C. and 5% CO2, the cells were loaded with 20 μL/well of calcium dye (FLIPR Calcium 6 Assay Kit, Molecular Devices, San Jose, CA) diluted in loading buffer (1× Hank's Balanced Salt Solution (HBSS), 5 mM probenecid, 20 mM 4-(2-hydroxyethyl)-1-piperazineethanesulfonic acid (HEPES), pH 7.4, VWR, Radnor, PA) followed with 45 min. incubation at 37° C. and 40 min. at r.t. in the dark. Cells were then treated with the addition of 10 uL/well test compounds with a range of increasing concentrations diluted in the assay buffer (1×HBSS, 20 mM HEPES, pH 7.4, VWR, Radnor, PA) with FLIPR Penta (Molecular Devices. San Jose, CA) and incubated for 30 min. at r.t. Ca^2+ release was measured with FLIPR Penta with 10 seconds basal fluorescence measurement, then 12.5 μL of 5× agonist Cortistatin-14 (Tocris, Minneapolis, MN) at final concentration corresponding to the EC80 were added followed with continued fluorescence signal monitoring for an additional 110 seconds. The base line adjusted (median of first 10s base line) max value of the Relative Fluorescence Unit (RFU) was plotted against compound concentrations. Wells with no compound were served as the positive controls, and wells with high concentration of reference antagonist were used as negative controls. IC50 curves were globally fitted with 3- or 4-parameter Hill equation in a Genedata Screener (Genedata Basel, Switzerland).

MRGPRX2 [2] = target: T1, MRGPRX2; assay: MRGPRX2 β-Arrestin recruitment assay (PathHunter); set-up: host or cells: CHO-K1 (PathHunter); conditions: PathHunter CHO-K1 MRGPRX2 β-Arrestin cell line; agonist Cortistatin 14 0.25 μM
Text: Example C: MRGPRX2 P-Arrestin Assay
This assay measures compound inhibition of P-Arrestin recruitment, which is part of the G protein-independent pathway that results from the ligand-activated GPCR phosphorylation by specific GPCR kinases. The PathHunter CHO-K1 MRPGRX2 B-Arrestin Cell line stably expressing ProLink tagged MRGPRX2 and Enzyme Acceptor Tagged B-Arrestin was purchased from Eurofins DiscoverX, (Fremont, CA).
The cells were maintained in culture medium from the Europhins DiscoverX Cell Culture Kit-107 which includes FBS, hygromycin B and G418. For the assay, the cells were harvested and were resuspended with Cell Plating Reagent 2 (Eurofins DiscoverX). Cells were added 10000 cells in 25 μL/well to a 384-well black cell culture plate (Greiner VWR, Radnor, PA) which contained 125 nL/well of compound at a selected serially diluted concentration range or DMSO. The plate was incubated at 37° C. with 5% CO2 for 1 h. 2 μL/well of agonist Cortistatin 14 was diluted in Protein Dilution Buffer, (Eurofins DiscoverX) for a final concentration of 0.25 μM, was added and the plate was incubated at 37° C. with 5% CO2 for 90 min. 14 μL/well of Detection Reagent Mix (PathHunter Detection Kit, Eurofins DiscoverX) was added to the plates and further incubated for 1 h in the dark. Plates were read on the PHERAstar microplate reader (BMG Labtech Cary, NC) measuring luminescence 0.1 to 1 second per well. Data was normalized using DMSO only wells and wells with high concentration of reference antagonist as controls. Compound IC50 curves were globally fitted with 3- or 4-parameter Hill equation in a Genedata Screener (Genedata Basel, Switzerland).

MRGPRX2 [3] = target: T1, MRGPRX2; assay: MRGPRX2 IP1 HTRF assay; set-up: host or cells: CHO-K1; conditions: CHO-K1 cells stably expressing human MRGPRX2; IP1 accumulation; agonist Cortistatin 14 1 μM
Text: Example B: MRGPRX2 IP1 HTRF Assay
This assay measures compound inhibition of myo-Inositol 1 phosphate (IP1) accumulation in CHO-K1 cells. Chinese hamster ovary (CHO-K1) cells stably expressing human MRGPRX2 were purchased from GenScript (Piscataway, NJ).
For the HTRF IP1 determination, an IP-One GqKit (Perkin Elmer Cisbio, Waltham, MA), which includes all reagents and buffers in this protocol, was used. The cells were maintained in culture medium (Ham's F-12K) containing 10% (v/v) FBS, and 200 μg/mL Zeocin. For the assay, the cells were harvested and resuspended in culture medium with 2% FBS and without Zeocin, then were passed through a 40 μm filter. Cells were added at 20000 cells in a 5 μL/well to a 384-well white small volume cell culture plate (Greiner VWR, Radnor, PA) which contained 50 nL/well of test compound serially diluted at a selected concentration range in DMSO. 5 μL/well of prepared 2× Stimulation Buffer2 was then added to plates and was incubated at 37° C. with 5% CO2 for 1 h. 5 μL/well of agonist Cortistatin 14 (Bio-TechneR&D Systems, Minneapolis, MN) in 1× Stimulation Buffer2, for a 1 μM final concentration, was then added to plates and incubated at 37° C. with 5% CO2 for 1 h. 6 μL/well of 1:20 diluted Detection Reagent Mix (d2 and Cryptate) was added to the plates and incubated for 1 h in the dark. Plates were read on the PHERAstar microplate reader (BMG Labtech Cary, NC) to determine the HTRF ratio of the acceptor and donor emission signals. The IP1 concentrations were calculated from a standard curve following the IP-One GQ kit instructions. Wells with DMSO only and wells with high concentration of reference antagonist were used as controls for normalization. Compound IC50 curves were globally fitted with 3- or 4-parameter Hill equation in a Genedata Screener (Genedata Basel, Switzerland).

Structure (SMILES)	IC50 (MRGPRX2 [1])	IC50 (MRGPRX2 [2])	IC50 (MRGPRX2 [3])
OC1CCC(CNc2cc(C(F)(F)F)nc3cc(Br)nn23)(c2ccccc2)C1 (racemic) [Example 84, 3-(((2-Bromo-5-(trifluoromethyl)pyrazolo[1,5-a]pyrimidin-7-yl)amino)methyl)-3-phenylcyclopentan-1-ol]	0.1 to 100 nM	0.1 to 100 nM	–
Cn1nc(N2CCC(CNc3cc(C(F)(F)F)nc4cc(C(F)(F)F)nn34)(c3ccc(F)cc3)CC2)ccc1=O [Example 40, 6-(4-(((2,5-Bis(trifluoromethyl)pyrazolo[1,5-a]pyrimidin-7-yl)amino)methyl)-4-(4-fluorophenyl)piperidin-1-yl)-2-methylpyridazin-3(2H)-one]	0.1 to 100 nM	0.1 to 100 nM	–
Cn1cc(N2CC(CNc3cc(C(F)(F)F)nc4cc(C(F)(F)F)nn34)(c3ccc(F)cc3)C2)nn1 [Example 46, N-((3-(4-Fluorophenyl)-1-(1-methyl-1H-1,2,3-triazol-4-yl)azetidin-3-yl)methyl)-2,5-bis(trifluoromethyl)pyrazolo[1,5-a]pyrimidin-7-amine]	0.1 to 100 nM	0.1 to 100 nM	–
NC(=O)c1cccc(N2CC(CNc3cc(C(F)(F)F)nc4cc(C(F)(F)F)nn34)(c3ccc(F)cc3)C2)n1 [Example 47, 6-(3-(((2,5-Bis(trifluoromethyl)pyrazolo[1,5-a]pyrimidin-7-yl)amino)methyl)-3-(4-fluorophenyl)azetidin-1-yl)picolinamide]	0.1 to 100 nM	0.1 to 100 nM	–
Cc1cc2nc(I)cc(NCC3(c4ccccc4)CCOC3)n2n1 (stereo not shown) [Example 78, 5-Iodo-2-methyl-N-((3-phenyltetrahydrofuran-3-yl)methyl)pyrazolo[1,5-a]pyrimidin-7-amine]	100 to 1000 nM	–	–
N#Cc1cc2nc(C(F)(F)F)cc(NCC3(n4cccn4)CN(S(N)(=O)=O)C3)n2n1 [Example 95, 3-(((2-Cyano-5-(trifluoromethyl)pyrazolo[1,5-a]pyrimidin-7-yl)amino)methyl)-3-(1H-pyrazol-1-yl)azetidine-1-sulfonamide]	0.1 to 100 nM	–	–
O=C(N[C@H]1CC[C@H](O)CC1)N1CC(CNc2cccc3nc(C(F)(F)F)cn23)(c2ccc(F)cc2)C1 [Example 102, 3-(4-Fluorophenyl)-N-((1r,4r)-4-hydroxycyclohexyl)-3-(((2-(trifluoromethyl)imidazo[1,2-a]pyridin-5-yl)amino)methyl)azetidine-1-carboxamide]	–	0.1 to 100 nM	0.1 to 100 nM
CN(C)c1cc(NCC2(c3ccc(F)cc3)CN(S(N)(=O)=O)C2)n2nc(C(F)(F)F)cc2n1 [Example 105, 3-(((5-(Dimethylamino)-2-(trifluoromethyl)pyrazolo[1,5-a]pyrimidin-7-yl)amino)methyl)-3-(4-fluorophenyl)azetidine-1-sulfonamide]	0.1 to 100 nM	–	–

Next, values leading:

IC50 (MRGPRX2 [1])	IC50 (MRGPRX2 [2])	IC50 (MRGPRX2 [3])	Structure (SMILES)
–	0.1 to 100 nM	0.1 to 100 nM	[2H]C([2H])([2H])NC(=O)N1CC(CNc2cccc3nc(C(F)(F)F)nn23)(c2ccc(F)cc2)C1 [Example 103, 3-(4-Fluorophenyl)-N-(methyl-d3)-3-(((2-(trifluoromethyl)-[1,2,4]triazolo[1,5-a]pyridin-5-yl)amino)methyl)azetidine-1-carboxamide]
–	0.1 to 100 nM	0.1 to 100 nM	[2H]C([2H])([2H])c1cc(NCC2(c3ccc(F)cc3)CN(C(=O)NCC(F)(F)F)C2)n2nc(C(F)(F)F)cc2n1 [Example 109, 3-(4-Fluorophenyl)-3-(((5-(methyl-d3)-2-(trifluoromethyl)pyrazolo[1,5-a]pyrimidin-7-yl)amino)methyl)-N-(2,2,2-trifluoroethyl)azetidine-1-carboxamide]
–	0.1 to 100 nM	0.1 to 100 nM	[2H]C([2H])([2H])c1cc(NCC2(c3ccc(F)cc3)CN(C(=O)NCC(F)F)C2)n2nc(C(F)(F)F)cc2n1 [Example 110, N-(2,2-Difluoroethyl)-3-(4-fluorophenyl)-3-(((5-(methyl-d3)-2-(trifluoromethyl)pyrazolo[1,5-a]pyrimidin-7-yl)amino)methyl)azetidine-1-carboxamide]
–	0.1 to 100 nM	0.1 to 100 nM	[2H]C([2H])([2H])C([2H])([2H])c1cc(NCC2(c3ccc(F)cc3)CN(C(N)=O)C2)n2nc(C(F)(F)F)cc2n1 [Example 111, 3-(((5-(Ethyl-d5)-2-(trifluoromethyl)pyrazolo[1,5-a]pyrimidin-7-yl)amino)methyl)-3-(4-fluorophenyl)azetidine-1-carboxamide]
–	0.1 to 100 nM	0.1 to 100 nM	[2H]C([2H])([2H])C([2H])([2H])c1cc(NCC2(c3ccc(F)cc3)CN(C(=O)N[C@H]3CC[C@H](O)CC3)C2)n2nc(C(F)(F)F)cc2n1 [Example 112, 3-(((5-(Ethyl-d5)-2-(trifluoromethyl)pyrazolo[1,5-a]pyrimidin-7-yl)amino)methyl)-3-(4-fluorophenyl)-N-((1r,4r)-4-hydroxycyclohexyl)azetidine-1-carboxamide]
–	0.1 to 100 nM	0.1 to 100 nM	[2H]C([2H])([2H])C([2H])([2H])c1cc(NCC2(c3ccc(F)cc3)CN(C(=O)N[C@@H]3CC[C@@H](O)C3)C2)n2nc(C(F)(F)F)cc2n1 [Example 113, 3-(((5-(Ethyl-d5)-2-(trifluoromethyl)pyrazolo[1,5-a]pyrimidin-7-yl)amino)methyl)-3-(4-fluorophenyl)-N-((1R,3R)-3-hydroxycyclopentyl)azetidine-1-carboxamide]
